Measurements taken from patent US6914045B2, “Glycopeptide antibiotics” (Wyeth Holdings Corporation, priority 2001, dated 2005).
Values after ≈ are worked out from the molar mass of the structure shown.

What was measured:
Assay in all cases: in vitro antibacterial evaluation, MIC by broth dilution
Type in all cases: cell-based
Staphylococcus sp. = details: broth dilution, 18 hours at 35° C.; for MIC Staphylococcus aureus (GC 1131): strain GC 1131
In short: (§1)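 Read-out: the lowest concentration at which the test strain fails to grow. Serial dilutions (64-0.06 μg/mL) in Muller-Hinton II […], 5×10^5 CFU/mL inoculum, NCCLS M7-A2 procedure.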

Enterococcus sp. = details: broth dilution, 18 hours at 35° C.
In short: as §1

Streptococcus sp. = details: broth dilution, 18 hours at 35° C.
In short: as §1

Escherichia coli = details: 18 hours at 35° C.

- MIC Staphylococcus aureus (GC 1131) (Staphylococcus sp.; inoculum 5×10^5 CFU/mL): 0.5 µg/mL (≈ 0.353 µM)
- MIC Staphylococcus aureus (ATCC 29213) (Staphylococcus sp.; strain ATCC 29213): 0.5 µg/mL (≈ 0.353 µM)
- MIC Staphylococcus aureus (GC 1131) (Staphylococcus sp.): 0.5 µg/mL (≈ 0.353 µM)
- MIC Staphylococcus aureus (GC 3051) (Staphylococcus sp.; strain GC 3051): 0.5 µg/mL (≈ 0.353 µM)
- MIC Staphylococcus aureus (GC 3053) (Staphylococcus sp.; strain GC 3053): 0.5 µg/mL (≈ 0.353 µM)
- MIC Staphylococcus aureus (GC 4541) (Staphylococcus sp.; strain GC 4541): 0.5 µg/mL (≈ 0.353 µM)
- MIC Staphylococcus aureus (GC 4542) (Staphylococcus sp.; strain GC 4542): 0.5 µg/mL (≈ 0.353 µM)
- MIC Staphylococcus aureus-SMITH (GC 4543) (Staphylococcus sp.; strain GC 4543): 0.5 µg/mL (≈ 0.353 µM)
- MIC Staphylococcus aureus (GC 4544) (Staphylococcus sp.; strain GC 4544): 0.5 µg/mL (≈ 0.353 µM)
- MIC Staphylococcus aureus (GC 4545) (Staphylococcus sp.; strain GC 4545): 0.5 µg/mL (≈ 0.353 µM)
- MIC Coagulase Negative Staphylococcus (GC 4547) (Staphylococcus sp.; strain GC 4547): 4 µg/mL (≈ 2.82 µM)
- MIC Coagulase Negative Staphylococcus (GC 4548) (Staphylococcus sp.; strain GC 4548): 2 µg/mL (≈ 1.41 µM)
- MIC Coagulase Negative Staphylococcus (GC 4549) (Staphylococcus sp.; strain GC 4549): 1 µg/mL (≈ 0.705 µM)
- MIC Coagulase Negative Staphylococcus (GC 4551) (Staphylococcus sp.; strain GC 4551): 4 µg/mL (≈ 2.82 µM)
- MIC Coagulase Negative Staphylococcus (GC 6257) (Staphylococcus sp.; strain GC 6257): 2 µg/mL (≈ 1.41 µM)
- MIC Enterococcus avium (GC 4558) (Enterococcus sp.): 0.5 µg/mL (≈ 0.353 µM)
- MIC Enterococcus faecalis (ATCC 29212) (Enterococcus sp.): 0.5 µg/mL (≈ 0.353 µM)
- MIC Enterococcus faecalis (GC 2242) (Enterococcus sp.): 0.5 µg/mL (≈ 0.353 µM)
- MIC Enterococcus faecalis (GC 2691) (Enterococcus sp.): 0.5 µg/mL (≈ 0.353 µM)
- MIC Enterococcus faecalis (GC 3059) (Enterococcus sp.): 0.5 µg/mL (≈ 0.353 µM)
- MIC Enterococcus faecalis (GC 4552) (Enterococcus sp.): 0.5 µg/mL (≈ 0.353 µM)
- MIC Enterococcus faecalis (GC 4553) (Enterococcus sp.): 0.5 µg/mL (≈ 0.353 µM)
- MIC Enterococcus faecalis (GC 4554) (Enterococcus sp.): 0.5 µg/mL (≈ 0.353 µM)
- MIC Enterococcus faecalis (GC 6189) (Enterococcus sp.): 0.5 µg/mL (≈ 0.353 µM)
- MIC Enterococcus faecium (GC 2243) (Enterococcus sp.): 0.5 µg/mL (≈ 0.353 µM)
- MIC Enterococcus faecium (GC 4556) (Enterococcus sp.): 0.5 µg/mL (≈ 0.353 µM)
- MIC Enterococcus faecium (GC 4557) (Enterococcus sp.): 0.5 µg/mL (≈ 0.353 µM)
- MIC Enterococcus faecalis (ATCC 29212) (Enterococcus sp.; inoculum 5×10^5 CFU/mL, strain ATCC 29212): 0.5 µg/mL (≈ 0.353 µM)
- MIC Enterococcus faecalis (GC 2242) (Enterococcus sp.; inoculum 5×10^5 CFU/mL, strain GC 2242): 0.5 µg/mL (≈ 0.353 µM)
- MIC Enterococcus faecium (GC 2243) (Enterococcus sp.; inoculum 5×10^5 CFU/mL, strain GC 2243): 0.5 µg/mL (≈ 0.353 µM)
- MIC Enterococcus faecalis (GC 2691) (Enterococcus sp.; inoculum 5×10^5 CFU/mL, strain GC 2691): 0.5 µg/mL (≈ 0.353 µM)
- MIC Enterococcus faecalis (GC 3059) (Enterococcus sp.; inoculum 5×10^5 CFU/mL, strain GC 3059): 0.5 µg/mL (≈ 0.353 µM)
- MIC Enterococcus faecalis (GC 4552) (Enterococcus sp.; inoculum 5×10^5 CFU/mL, strain GC 4552): 0.5 µg/mL (≈ 0.353 µM)
- MIC Enterococcus faecalis (GC 4553) (Enterococcus sp.; inoculum 5×10^5 CFU/mL, strain GC 4553): 0.5 µg/mL (≈ 0.353 µM)
- MIC Enterococcus faecalis (GC 4554) (Enterococcus sp.; inoculum 5×10^5 CFU/mL, strain GC 4554): 0.5 µg/mL (≈ 0.353 µM)
- MIC Enterococcus faecium (GC 4556) (Enterococcus sp.; inoculum 5×10^5 CFU/mL, strain GC 4556): 0.5 µg/mL (≈ 0.353 µM)
- MIC Enterococcus faecium (GC 4557) (Enterococcus sp.; inoculum 5×10^5 CFU/mL, strain GC 4557): 0.5 µg/mL (≈ 0.353 µM)
- MIC Enterococcus avium (GC 4558) (Enterococcus sp.; inoculum 5×10^5 CFU/mL, strain GC 4558): 0.5 µg/mL (≈ 0.353 µM)
- MIC Enterococcus faecalis (GC 6189) (Enterococcus sp.; inoculum 5×10^5 CFU/mL, strain GC 6189): 0.5 µg/mL (≈ 0.353 µM)
- MIC Streptococcus agalactiae (GC 4564) (Streptococcus sp.): 0.5 µg/mL (≈ 0.353 µM)
- MIC Streptococcus pneumoniae (ATCC 6301) (Streptococcus sp.): 0.12 µg/mL (≈ 0.0846 µM)
- MIC Streptococcus pneumoniae (GC 1894) (Streptococcus sp.): 0.12 µg/mL (≈ 0.0846 µM)
- MIC Streptococcus pneumoniae (GC 4565) (Streptococcus sp.): 0.12 µg/mL (≈ 0.0846 µM)
- MIC Streptococcus pyogenes (GC 4563) (Streptococcus sp.): 0.12 µg/mL (≈ 0.0846 µM)
- MIC Streptococcus pneumoniae (ATCC 6301) (Streptococcus sp.; inoculum 5×10^5 CFU/mL, strain ATCC 6301): 0.12 µg/mL (≈ 0.0846 µM)
- MIC Streptococcus pneumoniae (GC 1894) (Streptococcus sp.; inoculum 5×10^5 CFU/mL, strain GC 1894): 0.12 µg/mL (≈ 0.0846 µM)
- MIC Streptococcus pyogenes (GC 4563) (Streptococcus sp.; inoculum 5×10^5 CFU/mL, strain GC 4563): 0.12 µg/mL (≈ 0.0846 µM)
- MIC Streptococcus agalactiae (GC 4564) (Streptococcus sp.; inoculum 5×10^5 CFU/mL, strain GC 4564): 0.5 µg/mL (≈ 0.353 µM)
- MIC Streptococcus pneumoniae (GC 4565) (Streptococcus sp.; inoculum 5×10^5 CFU/mL, strain GC 4565): 0.12 µg/mL (≈ 0.0846 µM)
- MIC Escherichia coli (ATCC 25922) (Escherichia coli): >0.5 µg/mL
- MIC Escherichia coli (GC 4559) (Escherichia coli): >0.5 µg/mL
- MIC Escherichia coli (GC 4560) (Escherichia coli): 0.5 µg/mL (≈ 0.353 µM)
Structure (SMILES): CC(c1ccc(Cl)cc1)C1NC(=O)CNC(=O)C(CO)NC(=O)C(C(O)C2CNC(=N)N2C2OC(CO)C(O)C(O)C2O)NC(=O)C(C(O)C2CNC(=N)N2)NC(=O)C(Cc2ccc(OC3OC(CO)C(OC4OC5COC(c6ccccc6)OC5C(O)C4O)C(O)C3O)cc2)NC1=O (centres unmarked) [Example 195]
- MIC Staphylococcus haemolyticus (GC 4546) (Staphylococcus sp.; strain GC 4546): 2 µg/mL (≈ 1.41 µM)
